# pIC50: −log10 of the molar value. Where two headings read alike, the source gives them in different places.
# How the values were obtained:
# HIV-1IIIB = assay: TCID50 determination of drug-treated HIV-1IIIB; assay type: cell-based; design: TCID50, XTT Endpoint / TCID50, RT Endpoint / TCID50, P24 Endpoint: unit not given here
# [1] = Toxicokinetics and 7-day toxicity after oral administration of CMX157 to rats; assay type: in vivo; settings: for AUC0-24 / Cmax / Tmax / AUC(0-t) / AUC0-∞ / t1/2elim: rat plasma; for AUC(0-t): read-out: AUC0-24
# HIV = assay: microbe, parasite or virus in culture; assay type: cell-based
# [2] = virus treated 15 minutes with 125 nM drug
# [3] = virus treated 2 hours with 125 nM drug
# [4] = virus treated 2 hours with 250 nM drug
# [5] = virus treated 2 hours with 500 nM drug
# [6] = virus treated 2 hours with 1000 nM drug
smiles,measurement,setting,value
"CCCCCCCCCCCCCCCCOCCCOP(=O)(O)CO[C@H](C)Cn1cnc2c(N)ncnc21 [CMX157, Hexadecyloxypropyl-9-R-[2-(Phosphonomethoxy)Propyl]-Adenine]","TCID50, RT Endpoint",HIV-1IIIB; [2],64570
same,"TCID50, XTT Endpoint",HIV-1IIIB; [2],4027
same,"Fold Decrease From VC, P24 Endpoint",HIV-1IIIB; [3],(4.0) Fold
same,"Fold Decrease From VC, RT Endpoint",HIV-1IIIB; [3],(1.6) Fold
same,"Fold Decrease From VC, XTT Endpoint",HIV-1IIIB; [3],(4.0) Fold
same,"TCID50, P24 Endpoint",HIV-1IIIB; [3],9058
same,"TCID50, RT Endpoint",HIV-1IIIB; [3],51172
same,"TCID50, XTT Endpoint",HIV-1IIIB; [3],1132
same,"Fold Decrease From VC, P24 Endpoint",HIV-1IIIB; [4],(3.4) Fold
same,"Fold Decrease From VC, RT Endpoint",HIV-1IIIB; [4],(3.2) Fold
same,"Fold Decrease From VC, XTT Endpoint",HIV-1IIIB; [4],(4.0) Fold
same,"TCID50, P24 Endpoint",HIV-1IIIB; [4],10765
same,"TCID50, RT Endpoint",HIV-1IIIB; [4],25588
same,"TCID50, XTT Endpoint",HIV-1IIIB; [4],1132
same,"Fold Decrease From VC, P24 Endpoint",HIV-1IIIB; [5],(4.8) Fold
same,"Fold Decrease From VC, RT Endpoint",HIV-1IIIB; [5],(2.2) Fold
same,"Fold Decrease From VC, XTT Endpoint",HIV-1IIIB; [5],(4.0) Fold
same,"TCID50, P24 Endpoint",HIV-1IIIB; [5],7604
same,"TCID50, RT Endpoint",HIV-1IIIB; [5],36227
same,"TCID50, XTT Endpoint",HIV-1IIIB; [5],1132
same,"Fold Decrease From VC, P24 Endpoint",HIV-1IIIB; [6],(4.8) Fold
same,"Fold Decrease From VC, RT Endpoint",HIV-1IIIB; [6],(2.2) Fold
same,"Fold Decrease From VC, XTT Endpoint",HIV-1IIIB; [6],(4.0) Fold
same,"TCID50, P24 Endpoint",HIV-1IIIB; [6],7604
same,"TCID50, RT Endpoint",HIV-1IIIB; [6],36227
same,"TCID50, XTT Endpoint",HIV-1IIIB; [6],1132
same,AUC0-24,"[1]; oral CMX157 10 mg/kg, day 1",441.7 ng·h/mL
same,Cmax,"[1]; oral CMX157 10 mg/kg, day 1",84.85 ng/mL
same,Tmax,"[1]; oral CMX157 10 mg/kg, day 1",0.5 h
same,Cmax,"[1]; oral CMX157 10 mg/kg, day 7",110.90 ng/mL
same,Tmax,"[1]; oral CMX157 10 mg/kg, day 7",0.5 h
same,AUC(0-t),"[1]; oral CMX157 10 mg/kg, day 7",435 ng·h/mL
same,AUC0-24,"[1]; oral CMX157 30 mg/kg, day 1","1,832.8 ng · h/ml"
same,Cmax,"[1]; oral CMX157 30 mg/kg, day 1",379.00 ng/mL
same,Tmax,"[1]; oral CMX157 30 mg/kg, day 1",2.0 h
same,Cmax,"[1]; oral CMX157 30 mg/kg, day 7",202.50 ng/mL
same,Tmax,"[1]; oral CMX157 30 mg/kg, day 7",1.0 h
same,AUC(0-t),"[1]; oral CMX157 30 mg/kg, day 7",1540 ng·h/mL
same,AUC0-24,"[1]; oral CMX157 100 mg/kg, day 1","5,408 ng · h/ml"
same,AUC0-∞,"[1]; oral CMX157 100 mg/kg, day 1","5,429.8 ng · h/ml"
same,Cmax,"[1]; oral CMX157 100 mg/kg, day 1",905.00 ng/mL
same,Tmax,"[1]; oral CMX157 100 mg/kg, day 1",2.0 h
same,t1/2elim,"[1]; oral CMX157 100 mg/kg, day 1",2.5 h
same,AUC0-∞,"[1]; oral CMX157 100 mg/kg, day 7","8,050.6 ng · h/ml"
same,Cmax,"[1]; oral CMX157 100 mg/kg, day 7",685.50 ng/mL
same,Tmax,"[1]; oral CMX157 100 mg/kg, day 7",2.0 h
same,t1/2elim,"[1]; oral CMX157 100 mg/kg, day 7",1.6 h
same,AUC(0-t),"[1]; oral CMX157 100 mg/kg, day 7",8050 ng·h/mL
same,no-observed-adverse-effect level,"[1]; rats, 7 days, highest dose tested",up to 100 mg/kg/day
same,pIC50,"HIV; Human immunodeficiency virus 1, PANEL 1, WT",8.76
same,pIC50,"HIV; Human immunodeficiency virus 1, PANEL 2, WT",8.79
same,pIC50,"HIV; Human immunodeficiency virus 1, PANEL 3, 6 TAMs, no 184",8.07
same,pIC50,"HIV; Human immunodeficiency virus 1, PANEL 6, 6 TAMs + 184",8.28
same,pIC50,"HIV; Human immunodeficiency virus 1, PANEL 7, 184V",8.87
same,pIC50,"HIV; Human immunodeficiency virus 1, PANEL 9, 69ins, no 184",7.24
same,pIC50,"HIV; Human immunodeficiency virus 1, PANEL 12, 69ins + 184",7.95
same,pIC50,"HIV; Human immunodeficiency virus 1, PANEL 14, 65R, no 184",8.44
same,pIC50,"HIV; Human immunodeficiency virus 1, PANEL 15, 65R + 184V",8.57
same,pIC50,"HIV; Human immunodeficiency virus 1, PANEL 17, L74V",8.91
same,pIC50,"HIV; Human immunodeficiency virus 1, PANEL 19, L74V + M184V",9.18
same,pIC50,"HIV; Human immunodeficiency virus 1, PANEL 26, 151M, no 184",8.43
same,pIC50,"HIV; Human immunodeficiency virus 1, PANEL 28, 151M + 184",8.52
same,pIC50,"HIV; Human immunodeficiency virus 1, PANEL 29, L74V − SDM",8.83
same,pIC50,"HIV; Human immunodeficiency virus 1, PANEL 30, M184V − SDM",8.94
same,pIC50,"HIV; Human immunodeficiency virus 1, PANEL 31, K65R − SDM",8.33
same,pIC50,"HIV; Human immunodeficiency virus 1, PANEL 33, T215Y",8.30
same,pIC50,"HIV; Human immunodeficiency virus 1, PANEL 34, T215Y + M184V",8.78
same,pIC50,"HIV; Human immunodeficiency virus 1, PANEL 35, M41L + T215Y",8.41
same,pIC50,"HIV; Human immunodeficiency virus 1, PANEL 37, M41L + T215Y + M184V",8.54
same,pIC50,"HIV; Human immunodeficiency virus 1, PANEL 38, M41L + L210W + T215Y",8.22
same,pIC50,"HIV; Human immunodeficiency virus 1, PANEL 39, M41L + L210W + T215Y",8.18
same,pIC50,"HIV; Human immunodeficiency virus 1, PANEL 40, M41L + L210W + T215Y + M184V",8.72
same,pIC50,"HIV; Human immunodeficiency virus 1, PANEL 41, M41L + L210W + T215Y + M184V",8.60
same,pIC50,"HIV; Human immunodeficiency virus 1, PANEL 42, D67N + K70R",8.25
same,pIC50,"HIV; Human immunodeficiency virus 1, PANEL 44, D67N + K70R + T215F + K219E + M184V",8.72
same,pIC50,"HIV; Human immunodeficiency virus 1, PANEL 45, L210W + T215Y",8.55
same,pIC50,"HIV; Human immunodeficiency virus 1, PANEL 46, D67N + K70E",8.67
same,pIC50,"HIV; Human immunodeficiency virus 1, PANEL 47, D67N + K70E + M184V",8.84
same,pIC50,"HIV; Human immunodeficiency virus 1, PANEL 48, K70E + M184V",8.88
same,pIC50,"HIV; Human immunodeficiency virus 1, read-out: IC50s against NRTI resistant HIV, range over panel",7.24 to 8.92

# Reference: US8993542B2, “Methods of treating viral infections” (priority 2008, dated 2015)
